Measured values reported in PubChem BioAssay AID2060338 (Molecular Pharmacology Branch, DTP, NCI, 2025).
pIC50: −log10 of the molar value.

Tested on: 556581-035-R-J1-PDC spheroids with HUVEC/MSC, viability
Assay: Anticancer human tumor 556581-035-R-J1-PDC patient-derived ovarian carcinoma cell line growth inhibition [IpAb]
Details: for pIC50: curve of first compound; for viability, T/C: stronger effect = lower value
In short: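 Spheroids of 60% malignant cells, 25% HUVEC and 15% MSC were exposed to targeted agents combined with ipatasertib or abemaciclib. Doses started at or near clinical Cmax (10 microM when unknown) and fell in half-log steps.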

[1] = second compound 0.1 µM, first compound 0.0316 µM
[2] = second compound 0.1 µM, first compound 0.1 µM
[3] = second compound 0.1 µM, first compound 0.316 µM
[4] = second compound 0.1 µM, first compound 1 µM
[5] = second compound 0.316 µM, first compound 0.0316 µM
[6] = second compound 0.316 µM, first compound 0.1 µM
[7] = second compound 0.316 µM, first compound 0.316 µM
[8] = second compound 0.316 µM, first compound 1 µM
[9] = second compound 1 µM, first compound 0.0316 µM
[10] = second compound 1 µM, first compound 0.1 µM
[11] = second compound 1 µM, first compound 0.316 µM
[12] = second compound 1 µM, first compound 1 µM
[13] = second compound 3.16 µM, first compound 0.0316 µM
[14] = second compound 3.16 µM, first compound 0.1 µM
[15] = second compound 3.16 µM, first compound 0.316 µM
[16] = second compound 3.16 µM, first compound 1 µM
[17] = second compound 10 µM, first compound 0.0316 µM
[18] = second compound 10 µM, first compound 0.1 µM
[19] = second compound 10 µM, first compound 0.316 µM
[20] = second compound 10 µM, first compound 1 µM
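Note: spheroids exposed to compounds for 7 days before readout.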

## CC(C)(C)c1cnc(CSc2cnc(NC(=O)C3CCNCC3)s2)o1 + CCN1CCN(Cc2ccc(Nc3ncc(F)c(-c4cc(F)c5nc(C)n(C(C)C)c5c4)n3)nc2)CC1
Second compound 0.01 µM
  pIC50: 6.81
Second compound 0.0316 µM
  pIC50: 6.94
Second compound 0.1 µM
  pIC50: 7.17
Second compound 0.316 µM
  pIC50: 7.34
Second compound 1 µM
  pIC50: 7.88
Second compound 0.01 µM, first compound 0.00949 µM
  viability, T/C: 103%
Second compound 0.01 µM, first compound 0.03 µM
  viability, T/C: 122%
Second compound 0.01 µM, first compound 0.0949 µM
  viability, T/C: 84.5%
Second compound 0.01 µM, first compound 0.3 µM
  viability, T/C: 2.06%
Second compound 0.01 µM, first compound 0.949 µM
  viability, T/C: 2.48%
Second compound 0.01 µM, first compound 3 µM
  viability, T/C: 2.1%
Second compound 0.0316 µM, first compound 0.00949 µM
  viability, T/C: 115%
Second compound 0.0316 µM, first compound 0.03 µM
  viability, T/C: 103%
Second compound 0.0316 µM, first compound 0.0949 µM
  viability, T/C: 59.2%
Second compound 0.0316 µM, first compound 0.3 µM
  viability, T/C: 5.51%
Second compound 0.0316 µM, first compound 0.949 µM
  viability, T/C: 1.33%
Second compound 0.0316 µM, first compound 3 µM
  viability, T/C: 0.97%
Second compound 0.1 µM, first compound 0.00949 µM
  viability, T/C: 93.8%
Second compound 0.1 µM, first compound 0.03 µM
  viability, T/C: 93.9%
Second compound 0.1 µM, first compound 0.0949 µM
  viability, T/C: 31.8%
Second compound 0.1 µM, first compound 0.3 µM
  viability, T/C: 1.38%
Second compound 0.1 µM, first compound 0.949 µM
  viability, T/C: 3.13%
Second compound 0.1 µM, first compound 3 µM
  viability, T/C: 1.36%
Second compound 0.316 µM, first compound 0.00949 µM
  viability, T/C: 83.5%
Second compound 0.316 µM, first compound 0.03 µM
  viability, T/C: 73.7%
Second compound 0.316 µM, first compound 0.0949 µM
  viability, T/C: 7.97%
Second compound 0.316 µM, first compound 0.3 µM
  viability, T/C: 1.31%
Second compound 0.316 µM, first compound 0.949 µM
  viability, T/C: 2.8%
Second compound 0.316 µM, first compound 3 µM
  viability, T/C: 3.38%
Second compound 1 µM, first compound 0.00949 µM
  viability, T/C: 55.7%
Second compound 1 µM, first compound 0.03 µM
  viability, T/C: 35.4%
Second compound 1 µM, first compound 0.0949 µM
  viability, T/C: 3.81%
Second compound 1 µM, first compound 0.3 µM
  viability, T/C: 1.87%
Second compound 1 µM, first compound 0.949 µM
  viability, T/C: 0.65%
Second compound 1 µM, first compound 3 µM
  viability, T/C: 1.32%

## C=CCn1c(=O)c2cnc(Nc3ccc(N4CCN(C)CC4)cc3)nc2n1-c1cccc(C(C)(C)O)n1 + CC(C)NCC(C(=O)N1CCN(c2ncnc3c2C(C)CC3O)CC1)c1ccc(Cl)cc1
Second compound 0.1 µM
  pIC50: 6.66
Second compound 0.316 µM
  pIC50: 6.73
Second compound 1 µM
  pIC50: 6.84
Second compound 3.16 µM
  pIC50: 7.15
Second compound 10 µM
  pIC50: > 7.50
[1]
  viability, T/C: 106%
[2]
  viability, T/C: 82.7%
[3]
  viability, T/C: 27.3%
[4]
  viability, T/C: 31.7%
Second compound 0.1 µM, first compound 3.16 µM
  viability, T/C: 42.9%
Second compound 0.1 µM, first compound 10 µM
  viability, T/C: 34.8%
[5]
  viability, T/C: 94.4%
[6]
  viability, T/C: 75.8%
[7]
  viability, T/C: 22.9%
[8]
  viability, T/C: 26.4%
Second compound 0.316 µM, first compound 3.16 µM
  viability, T/C: 35.1%
Second compound 0.316 µM, first compound 10 µM
  viability, T/C: 27.5%
[9]
  viability, T/C: 64.2%
[10]
  viability, T/C: 62.7%
[11]
  viability, T/C: 18.9%
[12]
  viability, T/C: 22%
Second compound 1 µM, first compound 3.16 µM
  viability, T/C: 27.4%
Second compound 1 µM, first compound 10 µM
  viability, T/C: 26.4%
[13]
  viability, T/C: 60.8%
[14]
  viability, T/C: 45.5%
[15]
  viability, T/C: 17.2%
[16]
  viability, T/C: 13.2%
Second compound 3.16 µM, first compound 3.16 µM
  viability, T/C: 23.2%
Second compound 3.16 µM, first compound 10 µM
  viability, T/C: 22.8%
[17]
  viability, T/C: 43.3%
[18]
  viability, T/C: 35.9%
[19]
  viability, T/C: 14.8%
[20]
  viability, T/C: 11.6%
Second compound 10 µM, first compound 3.16 µM
  viability, T/C: 18.2%
Second compound 10 µM, first compound 10 µM
  viability, T/C: 19.7%

## COc1c(OCCCN2CCOCC2)ccc2c3n(c(=NC(=O)c4cnc(N)nc4)nc12)CCN3 + CC(C)NCC(C(=O)N1CCN(c2ncnc3c2C(C)CC3O)CC1)c1ccc(Cl)cc1
Second compound 0.1 µM
  pIC50: 7.60
Second compound 0.316 µM
  pIC50: 7.50
Second compound 1 µM
  pIC50: 7.72
Second compound 3.16 µM
  pIC50: 7.86
Second compound 10 µM
  pIC50: 8.48
Second compound 0.1 µM, first compound 0.00316 µM
  viability, T/C: 73.8%
Second compound 0.1 µM, first compound 0.01 µM
  viability, T/C: 61.1%
[1]
  viability, T/C: 45.6%
[2]
  viability, T/C: 36.1%
[3]
  viability, T/C: 16.5%
[4]
  viability, T/C: 3.99%
Second compound 0.316 µM, first compound 0.00316 µM
  viability, T/C: 91.6%
Second compound 0.316 µM, first compound 0.01 µM
  viability, T/C: 62.8%
[5]
  viability, T/C: 55.1%
[6]
  viability, T/C: 31.5%
[7]
  viability, T/C: 15.6%
[8]
  viability, T/C: 2.82%
Second compound 1 µM, first compound 0.00316 µM
  viability, T/C: 64.1%
Second compound 1 µM, first compound 0.01 µM
  viability, T/C: 57%
[9]
  viability, T/C: 42%
[10]
  viability, T/C: 36.3%
[11]
  viability, T/C: 14.6%
[12]
  viability, T/C: 2.64%
Second compound 3.16 µM, first compound 0.00316 µM
  viability, T/C: 50.2%
Second compound 3.16 µM, first compound 0.01 µM
  viability, T/C: 45.2%
[13]
  viability, T/C: 55.3%
[14]
  viability, T/C: 39.3%
[15]
  viability, T/C: 11.8%
[16]
  viability, T/C: 5.41%
Second compound 10 µM, first compound 0.00316 µM
  viability, T/C: 52%
Second compound 10 µM, first compound 0.01 µM
  viability, T/C: 42.8%
[17]
  viability, T/C: 38.5%
[18]
  viability, T/C: 33.6%
[19]
  viability, T/C: 14.7%
[20]
  viability, T/C: 5.1%
